The values that follow come from US9822138B2, “Antiviral beta-amino acid ester phosphodiamide compounds” (Merck Sharp & Dohme Corp., priority 2015, dated 2017).

Molecules are shown by their SMILES. Like-named read-outs stand apart in the source and are kept apart here.

Data set [1] is described as follows: Prodrug stability assay in bio-relevant media (FaSSIF with pancreatin; GI tract stability). In kind it is in vitro ADME. To be noted: parent prodrug area at 5 h divided by area at 0 h; 37° C.; 0.5 mg/mL pancreatin in FaSSIF. The method, then: Prodrug Stability Assay in Bio-Relevant Media
The following assay was employed to evaluate the stability of the prodrugs in simulated gastrointestinal tract conditions. Preparation of fasted state simulated intestinal fluid (FaSSIF) using Phares SIF Powder was carried out according to protocols from Phare Drug Delivery AG (Baselland, Switzerland). For sample preparation, 10 μL stock solutions (10 mM) of prodrug substance in DMSO was added to 990 μL of 0.5 mg/mL Pancreatin solution (Fisher CAS#8049-47-6) in FaSSIF. Two samples were prepared for each compound at initial. If the sample was clear solution at the beginning, ran one sample directly as initial by HPLC; if the sample was not clear at starting, diluted the sample by 100% ACN. Put the other sample under 37° C. and observed the sample at 5 h time-point. At 5 h time point, if the sample was clear solution then performed HPLC analysis directly; if it was not clear solution, diluted the sample by 100% ACN and assayed by HPLC. All the samples were vortexed for 3 min and observed before injection. For the diluted samples, the area will be multiplied by a factor when data analysis. The analysis was carried out with an Agilent 1100 series HPLC with autosampler. The column was usually a Poroshell 120 EC-C18, 4.6×50 mm, 2.7 μm. The flow rate was 1.8 mL/min, and the injection volume was 5 or 10 μL. UV detection was in the range 210-400 nm. The mobile phase consisted of solvent A (water plus 10 mM tetrabutylammonium bromide) and solvent B (acetonitrile) with a gradient of 90% solvent A at 0 min changing to 95% solvent B over 6 min, maintained for 1.5 min, then reverting to 90% solvent A over 1.6 min. The area of the parent in prodrug at 5 h time point was divided by the area of the parent in prodrug at 0 h time point, to generate the % claimed parent ratio, which are summarized in Table 5 for GI Tract stability.

Data set [2] deals with HIV-1 (H9/IIIB strain). Kind of data set: microbe, parasite or virus in culture. It counts as cell-based. The settings on record: MT4-GFP cells infected with HIV-1 H9/IIIB, inhibition of reproductive ratio R0. The method, then:
Assessing Antiviral Potency in a Multiple Round HIV-1 Infection Assay (Viking Assay)
The antiviral activity of the tenofovir prodrugs of the Examples herein was assessed in an assay that measures the rate of replication of HIV in cell culture, termed the Viking assay (Viral KINetics in Green cells) and performed as follows. HIV-1 replication was monitored using MT4-gag-GFP clone D3 (hereafter designated MT4-GFP), which are MT-4 cells modified to harbor a GFP reporter gene, the expression of which is dependent on the HIV-1 expressed proteins tat and rev. Productive infection of an MT4-GFP cell with HIV-1 results in GFP expression approximately 24 h post-infection. MT4-GFP cells were maintained at 37° C./5% CO2/90% relative humidity in RPMI 1640 supplemented with 10% fetal bovine serum, 100 U/ml penicillin/streptomycin, and 400 μg/ml G418 to maintain the reporter gene. For infections, MT4-GFP cells were placed in the same medium lacking G418 and infected overnight with HIV-1 (H9/IIIB strain) virus at an approximate multiplicity of infection of 0.01 in the same incubation conditions. Cells were then washed and re-suspended in either RPMI 1640 supplemented with 10% or 50% normal human serum (NHS) at 1.6×10^5 cells/mL (10% NHS or 50% NHS, respectively). Compound plates were prepared by dispensing compounds dissolved in DMSO into wells of 384 well poly-D-lysine-coated plates (0.2 μl/well) using an ECHO acoustic dispenser. Each compound was tested in a 10-point serial 3-fold dilution (typical final concentrations: 8.4 μM-0.42 nM). Controls included no inhibitor (DMSO only) and a combination of three antiviral agents (efavirenz, indinavir, an in-house integrase strand transfer inhibitor at final concentrations of 4 μM each). Cells were added ([…]) to compound plates and the infected cells were maintained at 37° C./5% CO2/90% relative humidity.
Infected cells were quantified at two time points, ˜48 h and ˜72 h post-infection, by counting the number of green cells in each well using an Acumen eX3 scanner. […] Inhibition of R0 is calculated for each well, and IC50s determined by non-linear 4-parameter curve fitting.

[3] abbreviates: 10% normal human serum, read-out: Viking, IC50 (10% NHS).
The mark [4] stands for this setting: 50% normal human serum, read-out: Viking, IC50 (50% NHS).
Setting [5] is: Human immunodeficiency virus 1, 10% normal human serum, read-out: Viking, IC50 (10% NHS).
Setting [6] is: Human immunodeficiency virus 1, 50% normal human serum, read-out: Viking, IC50 (50% NHS).

On to `CCCCCCCOC(=O)[C@H](C)NP(=O)(CO[C@H](C)Cn1cnc2c(N)ncnc21)NC[C@H](C)C(=O)OC(C)C` (single isomer, unassigned) [Example 17B], for which the “GI Tract stability” value in data set [1] amounted to 0%. Also, the results for the IC50 in data set [2] (setting [3]) and in data set [2] (setting [4]) were 0.0022 µM and 0.012 µM, respectively.
Consider `CC(C)COC(=O)[C@H](C)NP(=O)(CO[C@H](C)Cn1cnc2c(N)ncnc21)NC[C@H](C)C(=O)OC(C)C` (single isomer, unassigned) [Example 14B], for which the “GI Tract stability” value in data set [1] came to 60.6%. Also, the values for the 50% inhibitory concentration (IC50) in data set [2] (setting [3]) and in data set [2] (setting [4]) were 0.0157 µM and 0.0516 µM, respectively.
On the same counts, the results for `CC(C)OC(=O)[C@@H](C)CNP(=O)(CO[C@H](C)Cn1cnc2c(N)ncnc21)N[C@@H](C)C(=O)OC1CCC1` (single isomer, unassigned) [Example 12B] are 37.7%, 0.0209 µM and 0.0632 µM.
With `CC(C)OC(=O)C[C@H](N[P@](=O)(CO[C@H](C)Cn1cnc2c(N)ncnc21)NC(C)(C)C(=O)OC(C)C)C(C)C` [Example 25B], in data set [1], the “GI Tract stability” value was 100%. Further, the IC50 (commonly the point on the concentration scale where inhibition reaches its midpoint) in data set [2] (setting [5]) was 0.59 µM; in data set [2] (setting [6]), above 2 µM.
With `CC(C)OC(=O)CCNP(=O)(CO[C@H](C)Cn1cnc2c(N)ncnc21)N[C@@H](C)C(=O)OC(C)C` (single isomer, unassigned) [Example 7A], in data set [1], the “GI Tract stability” value is 98.7%. The IC50 in data set [2] (setting [5]) stood at 0.0264 µM; in data set [2] (setting [6]) it was 0.0441 µM.
Regarding `CC(C)OC(=O)[C@@H](C)CNP(=O)(CO[C@H](C)Cn1cnc2c(N)ncnc21)N[C@@H](C)C(=O)OC1CCCC1` (single isomer, unassigned) [Example 11B], in data set [1], the “GI Tract stability” value was found to be 76.4%. Further, the IC50 amounted to 0.0209 µM in data set [2] (setting [3]) and 0.0684 µM in data set [2] (setting [4]).
As for `CC(C)OC(=O)C[C@H](C)NP(=O)(CO[C@H](C)Cn1cnc2c(N)ncnc21)N[C@@H](C)C(=O)OC(C)C` (single isomer, unassigned) [Example 8A], the “GI Tract stability” value in data set [1] was determined as 89.5%. For the same compound, the IC50 in data set [2] (setting [3]) is 0.0265 µM; in data set [2] (setting [4]), 0.0382 µM.
On to `CCCCOC(=O)[C@H](C)NP(=O)(CO[C@H](C)Cn1cnc2c(N)ncnc21)NC[C@H](C)C(=O)OC(C)C` (single isomer, unassigned) [Example 15B], for which the “GI Tract stability” value in data set [1] is recorded as 65.8%. Also, the half-maximal inhibitory concentration (IC50) in data set [2] (setting [3]) amounted to 0.0117 µM; in data set [2] (setting [4]), 0.0794 µM.
For `CCCCCOC(=O)C(C)(C)NP(=O)(CO[C@H](C)Cn1cnc2c(N)ncnc21)N[C@@H](C)CC(=O)OC(C)C` (single isomer, unassigned) [Example 26B], in data set [1], the “GI Tract stability” value worked out at 96.9%. The IC50 was determined as 0.0015 µM in data set [2] (setting [3]) and 0.0068 µM in data set [2] (setting [4]).
As for `CCCCCOC(=O)[C@H](C)NP(=O)(CO[C@H](C)Cn1cnc2c(N)ncnc21)NC[C@H](C)C(=O)OC(C)C` (single isomer, unassigned) [Example 16B], in data set [1], the “GI Tract stability” value was 56.2%. For the same compound, the IC50 in data set [2] (setting [3]) is 0.0073 µM; in data set [2] (setting [4]), 0.0283 µM.
Regarding `CC(C)OC(=O)[C@H](C)NP(=O)(CO[C@H](C)Cn1cnc2c(N)ncnc21)NC[C@H](C)C(=O)OC(C)C` (single isomer, unassigned) [Example 6A], the “GI Tract stability” value in data set [1] worked out at 99.5%. The figures for the IC50 in data set [2] (setting [5]) and in data set [2] (setting [6]) were 0.02 µM and 0.0593 µM, respectively.
On to `CC(C)OC(=O)[C@@H](C)CNP(=O)(CO[C@H](C)Cn1cnc2c(N)ncnc21)N[C@H](C)C(=O)OC1CCCC1` (single isomer, unassigned) [Example 22B], for which, in data set [1], the “GI Tract stability” value was 99.2%. The IC50 was determined as 0.0838 µM in data set [2] (setting [3]) and 0.291 µM in data set [2] (setting [4]).
